Tests used:
[1] = system: C57 mice; assay: forced swimming test in mice; type: in vivo; conditions: 3 mg/kg p.o.; for immobility time during minutes 2-6, Mean value: one hour after the administration
From the text: (§1) The core manifestations of depression are despair, helplessness, and anhedonia. The forced swimming test is commonly used to evaluate despair-like behavior. In this test, the animal is placed in an unpleasant and inescapable environment (a water tank). […] Anhedonia means a loss of interest in things that were once pleasurable; in rodents, it is typically manifested as a reduced preference for sweet foods (sucrose). Therefore, the in vivo efficacy of the compounds of the examples of the present disclosure in mice can be evaluated by forced swimming and sucrose preference tests.
(§2) Female/male C57 mice, purchased from SPF (Suzhou) Biotechnology Co., Ltd.
(§3) Note: ①Vehicle: 5% of DMSO + 5% of HS-15 + 90% of 20% hydroxypropyl-β-cyclodextrin (10 mL/kg, p.o.).
Forced swimming: Animals were divided into a control group and various test drug administration dose groups, which were subjected to vehicle and test drug administration, respectively. One hour after the administration, the animals were placed in a 25 °C plexiglass cylinder with a water depth of 20 cm. The swimming status of the animals in the water was recorded by video, and the immobility time of the animals (characterized by floating in the water and stopping struggling) during minutes 2-6 was recorded and analyzed.
(§4) Experimental data were expressed as χ ± SEM. One-way analysis of variance was employed, and pairwise comparisons were performed using Dunnett's multiple comparisons tests. The floating immobility time, swimming time, and struggling time were recorded.

[2] = system: C57 mice; assay: sucrose preference test in mice; type: in vivo; conditions: 3 mg/kg p.o.; for Sucrose preference degree, Mean value: mice with chronic stress, 2 h free drinking
From the text: as §1, §2, §3
Sugar preference: D1: a 1% sucrose solution was provided on both sides; D2/3: drinking water was provided on one side, while a 1% sucrose solution was provided on the other side; D4: water and food were deprived; D5: sucrose preference degree was tested. During the test, the mice with chronic stress were subjected to administration according to the experimental groups. After the administration, pre-weighed sucrose solution and drinking water were provided on […]. The animals were allowed free access to drinking for 2 h in a dark environment, and during this period, the positions of the sucrose solution and drinking water were switched at the 1-hour mark.
as §4
Sucrose preference degree (%) = sucrose solution consumption/(sucrose solution consumption + purified water consumption) × 100%.

[3] = in vivo pharmacokinetic experiment in mice; parameters: species or system ICR mice; conditions: male, ICR, mouse; oral intragastric administration 10 mg/kg, single, plasma
Protocol: Male ICR mice were subjected to oral intragastric administration. The plasma concentrations of the compounds of the present disclosure in the mice were measured, the PK parameters were calculated, and pharmacokinetic evaluation was performed on the compounds of the present disclosure.
Drug preparation: according to the weight of the weighed drug, the preparation volume was calculated; 5% of DMSO and 5% of HS-15 were added sequentially; after the drug was fully dissolved, 90% of a 20% aqueous β-cyclodextrin solution was added, and the mixture was well mixed for later use.
Route of administration: oral intragastric administration, at a dose of 10 mg/kg.
Administration frequency and duration: single administration.
ICR mice were stratified according to body weight and then randomly grouped, with 9 mice per group. The mice were fasted overnight prior to the experiment. The mice were subjected to oral intragastric administration. At 0 h, 0.167 h, 0.333 h, 0.5 h, 1 h, 2 h, 4 h, 6 h, 8 h, 12 h, and 24 h, 50 µL of blood was collected from the fundus vein of each mouse into a sample tube containing heparin sodium as an anticoagulant, and then the tube was placed in wet ice and centrifuged at 4000 r·min^-1 for 10 min. The plasma was separated, and cryopreserved in a refrigerator at -80 °C for testing.
The concentrations of the plasma samples were measured by high-performance liquid chromatography-tandem mass spectrometry (LC-MS/MS). The retention times of the compounds and internal standard, chromatographic acquisitions, and integrals of chromatograms were processed using the software Analyst (AB SCIEX), and statistical analysis of the data was performed using the software Microsoft office. The plasma concentrations were processed using a non-compartmental model of the pharmacokinetic software WinNonlin™ Version 6.3 (Pharsight, Mountain View, CA), and the pharmacokinetic parameters were calculated using a linear log-trapezoidal method. Table 4. Results of pharmacokinetic experiment in mice

SMILES	immobility time during minutes 2-6, Mean value [1] [s]	effect on immobility time compared to the blank group ([1]; conclusion in words)	Sucrose preference degree, Mean value [2] [%]	effect on sucrose preference degree compared to the blank group ([2]; conclusion in words)	AUC(0-t) [3] [ng·h/mL]	Cmax [3] [ng/mL]	Tmax [3] [min]	half-life [3] [min]
C[C@@H]1C[C@H](C(=O)Cn2ncnn2)[C@@]2(C)CC[C@H]3[C@@H](CC[C@@H]4C[C@](C)(O)[C@@H](C)C[C@@H]43)[C@H]12 [Example 9, 1-((2S,3S,5R,8R,9R,10S,13S,14S,15R,17S)-3-Hydroxy-2,3,13,15-tetramethylhexadecahydro-1H-cyclopenta[a]phenanthren-17-yl)-2-(2H-tetrazol-2-yl)ethan-1-one]	54.68	significantly reduce the immobility time	88.37	significantly improve the sucrose preference degree	23600	3480	19.8	141
C[C@H]1C[C@H]2[C@H](CC[C@@H]3[C@@H]2CC[C@]2(C)[C@@H](C(=O)Cn4ncnn4)CC[C@@H]32)C[C@]1(C)O [Example 20, 1-((2S,3S,5R,8R,9R,10S,13S,14S,17S)-3-Hydroxy-2,3,13-trimethylhexadecahydro-1H-cyclopenta[a]phenanthren-17-yl)-2-(2H-tetrazol-2-yl)ethan-1-one]					32200	2580	30	155
C[C@@]1(O)CC[C@H]2[C@H](CC[C@@H]3[C@@H]2CC[C@]2(C)[C@@H](C(=O)Cn4cc(C#N)cn4)CC[C@@H]32)C1 [Sage-217, reference compound]	56.38		84.31		9160	1510	60	

— EP4711377A1, “STEROID COMPOUND, PREPARATION METHOD THEREFOR, AND USE THEREOF” (Shujing Biopharma Co., Ltd, priority 2023, dated 2024)
